Test results from ChEMBL document CHEMBL4419121, “Tetrahydropyridopyrazines modulators of gpr6” (2018).

Columns and labels:
[1] = target: T1, G-protein coupled receptor 6 (Homo sapiens, UniProt P46095); experiment: Modulation activity at GPR6 receptor (unknown origin) expressed in CHO-K1 cells assessed as inhibition of constitutive cAMP activity incubated for 45 mins in presence of 300 uM IBMX by Perkin Elmer Lance HTRF Ultrac-AMP assay; type: functional, cell-based
[2] = target: T1, G-protein coupled receptor 6; experiment: Modulation activity at GPR6 receptor (unknown origin) expressed in CHO-K1 cells assessed as inhibition of constitutive cAMP activity incubated for 45 mins by Perkin Elmer Lance HTRF Ultrac-AMP assay; type: functional, cell-based

T1 sequence (P46095 whole entry): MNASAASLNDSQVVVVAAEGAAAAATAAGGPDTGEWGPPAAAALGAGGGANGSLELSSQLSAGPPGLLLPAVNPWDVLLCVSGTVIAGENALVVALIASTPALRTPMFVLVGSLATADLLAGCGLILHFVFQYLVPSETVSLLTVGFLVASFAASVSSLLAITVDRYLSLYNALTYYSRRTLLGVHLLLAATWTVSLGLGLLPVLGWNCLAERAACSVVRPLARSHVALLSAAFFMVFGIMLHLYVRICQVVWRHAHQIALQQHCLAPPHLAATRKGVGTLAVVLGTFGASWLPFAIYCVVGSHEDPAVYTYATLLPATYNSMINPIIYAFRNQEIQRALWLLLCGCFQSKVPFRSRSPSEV

IC50 ([1]; cho-k1)	other results	Structure (SMILES)
49.7 nM		CC(=O)N1CCc2nc(N3CCC(Oc4ccc(F)cc4F)CC3)c(NCC(F)F)nc2C1
	IC50 [2]: 23.9 nM	CC1Cc2nc(NCC(F)F)c(N3CCC(Oc4ccc(F)cc4F)CC3)nc2CN1C(=O)C1CC1 (stereo not given)
27.6 nM		CCC(=O)N1CCc2nc(N3CCC(Oc4ccc(F)cc4F)CC3)c(NC(C)C)nc2C1
	IC50 [2]: 20.9 nM	CO[C@@H](C)C(=O)N1Cc2nc(N3CCC(Oc4ccc(F)cc4F)CC3)c(NCC(F)F)nc2CC1C (stereo not given in full)
212 nM		CC1c2nc(NCC(F)F)c(N3CCC(Oc4ccc(F)cc4F)CC3)nc2CCN1C(=O)C(F)F (stereo not given)
	IC50 [1]: 107 nM	COC[C@H](C)Nc1nc2c(nc1N1CCC(Oc3ccc(F)cc3F)CC1)CCN(C(C)=O)C2
	IC50 [2]: 29.8 nM	COCCNC(=O)N1CCc2nc(N3CCC(Oc4ccc(F)cc4F)CC3)c(NC(C)C)nc2C1
61.5 nM		CC(=O)N1CCc2nc(N3CCC(Oc4ccc(F)cc4F)CC3)c(N[C@H]3C[C@@H](O)C3)nc2C1
193 nM		CC1c2nc(N3CCC(Oc4ccc(F)cc4F)CC3)c(NCC(F)F)nc2CCN1C(=O)C(F)F (stereo not given)
	IC50 [2]: 23.2 nM	CC1Cc2nc(NCC(F)F)c(N3CCC(Oc4ccc(F)cc4F)CC3)nc2CN1C (stereo not given)
	IC50 [2]: 68 nM	COCC(=O)N1CCc2nc(NCC(F)F)c(N3CCC(Oc4ccc(F)cc4F)CC3)nc2C1C (stereo not given)
	IC50 [2]: 15.2 nM	CN1CCc2nc(NC3CC3)c(N3CCC([C@H](F)c4ccc(F)cc4F)CC3)nc2C1
	IC50 [2]: 14.9 nM	COCCNC(=O)N1CCc2nc(NC(C)C)c(N3CCC(Oc4ccc(F)cc4F)CC3)nc2C1
79.5 nM		COCC(=O)N1CCc2nc(NCC(F)F)c(N3CCC(Oc4ccc(F)cc4F)CC3)nc2C1
	IC50 [2]: 52 nM	CC1c2nc(N3CCC(Oc4ccc(F)cc4F)CC3)c(NCC(F)F)nc2CCN1S(C)(=O)=O (stereo not given)
111 nM		O=C(C(F)F)N1CCc2nc(NCC(F)F)c(N3CCC(Oc4ccc(F)cc4F)CC3)nc2C1
	IC50 [2]: 31.4 nM	CC1Cc2nc(NCC(F)F)c(N3CCC(Oc4ccc(F)cc4F)CC3)nc2CN1C(=O)N(C)C (stereo not given)
61.8 nM		CC(C)Nc1nc2c(nc1N1CCC(Oc3ccc(F)cc3F)CC1)CCN(S(C)(=O)=O)C2
220 nM		CC(=O)O[C@H]1C[C@@H](Nc2nc3c(nc2N2CCN(Cc4ccc(F)cc4F)CC2)CCN(C(C)=O)C3)C1
	IC50 [2]: 19.9 nM	COc1ccc(OC2CCN(c3nc4c(nc3NC3CCC3)CN(C(C)=O)CC4)CC2)c(F)c1
39.2 nM		CCC(=O)N1CCc2nc(N3CCC(Oc4ccc(F)cc4F)CC3)c(N[C@H]3CCOC3)nc2C1
342 nM		COc1cccc(S(=O)(=O)C2CCN(c3nc4c(nc3NC(C)C)CCN(C(C)=O)C4)CC2)c1
	IC50 [2]: 19.7 nM	CC(C)Nc1nc2c(nc1N1CCC(C(F)c3ccc(F)cc3F)CC1)CCN(C(=O)N(C)C)C2 (stereo not given)
	IC50 [2]: 11.5 nM	CC(=O)N1CCc2nc(NCC(F)F)c(N3CCC(Oc4ccc(F)cc4F)CC3)nc2C1
43.7 nM		CC(=O)N1CCc2nc(N3CCN(Cc4ccc(F)cc4F)CC3)c(NC3CCC3)nc2C1
200 nM		COc1ccc(S(=O)(=O)C2CCN(c3nc4c(nc3NC(C)C)CCN(C(C)=O)C4)CC2)c(F)c1
116 nM		CC(C)Nc1nc2c(nc1N1CCC(Oc3ccc(F)cc3F)CC1)C(C)N(C(=O)C(F)F)CC2 (stereo not given)

IC50 ([1]; cho-k1)	other results	Structure (SMILES)
63.2 nM		CC(=O)N1CCc2nc(N3CCN(Cc4ccc(F)cc4F)CC3)c(N[C@@H]3CCOC3)nc2C1
62.5 nM		COc1ccc(OC2CCN(c3nc4c(nc3NC(C)C)CCN(C(C)=O)C4)CC2)c(F)c1
30.9 nM		CCC(=O)N1CCc2nc(N3CCN(Cc4ccc(F)cc4F)CC3)c(NC(C)C)nc2C1
62 nM		CC[C@H](C)Nc1nc2c(nc1N1CCC(Oc3ccc(F)cc3F)CC1)CCN(C(C)=O)C2
188 nM		CC(=O)N1CCc2nc(NC(C)C)c(N3CCC(S(=O)(=O)c4ccc(F)cc4)CC3)nc2C1
363 nM		CC(=O)N1CCc2nc(N3CCN(Cc4ccc(C#N)cc4F)CC3)c(NC(C)C)nc2C1
	IC50 [1]: 33.7 nM	[2H]C([2H])([2H])C(=O)N1CCc2nc(N3CCC(Oc4ccc(F)cc4F)CC3)c(NC(C)C)nc2C1
37.8 nM		CC(=O)N1CCc2nc(N3CCC([C@@H](F)c4ccc(F)cc4F)CC3)c(NC(C)C)nc2C1
59.5 nM		CC(C)Nc1nc2c(nc1N1CCC(Oc3ccc(F)cc3F)CC1)CN(C)CC2
27.4 nM		CC(=O)N1CCc2nc(N3CCC([C@H](F)c4ccc(F)cc4F)CC3)c(NC(C)C)nc2C1
35.9 nM		CC(=O)N1CCc2nc(N3CCC(Oc4ccc(F)cc4F)CC3)c(NC3CC(F)(F)C3)nc2C1
73.2 nM		CC(=O)N1CCc2nc(N3CCC(Oc4ccc(F)cc4F)CC3)c(NC(C)C)nc2C1C (stereo not given)
110 nM		CC(C)Nc1nc2c(nc1N1CCC(Oc3ccc(F)cc3F)CC1)CCN(C(=O)N(C)C)C2C (stereo not given)
90.1 nM		CC(C)Nc1nc2c(nc1N1CCC(Oc3ccc(F)cc3F)CC1)CCN(C)C2
55 nM		CC(=O)N1CCc2nc(N3CCC(Oc4ccc(F)cc4F)CC3)c(NC3CCC3)nc2C1
211 nM		CC(C)Nc1nc2c(nc1N1CCC(Oc3ccc(F)cc3F)CC1)CN(C(=O)C1CC1)CC2
200 nM		CC(C)Nc1nc2c(nc1N1CCC(Oc3ccc(F)cc3F)CC1)CN(CC(F)F)CC2
179 nM		CC(C)Nc1nc2c(nc1N1CCC(Oc3ccc(F)cc3F)CC1)C(C)N(C(=O)N(C)C)CC2 (stereo not given)
74.8 nM		CC(C)Nc1nc2c(nc1N1CCC(Oc3ccc(F)cc3F)CC1)CCN(CCF)C2
59.1 nM		CCC(=O)N1CCc2nc(N3CCN(Cc4ccc(F)cc4F)CC3)c(N[C@H]3CCOC3)nc2C1
23.6 nM		CC(C)Nc1nc2c(nc1N1CCC([C@@H](F)c3ccc(F)cc3F)CC1)CCN(C=O)C2
163 nM		CS(=O)(=O)N1CCc2nc(NCC(F)F)c(N3CCC(Oc4ccc(F)cc4F)CC3)nc2C1
95 nM		CC(C)Nc1nc2c(nc1N1CCC(Oc3ccc(F)cc3F)CC1)CCN(C(=O)C(F)F)C2C (stereo not given)
30.3 nM		CC(C)Nc1nc2c(nc1N1CCC(C(F)c3ccc(F)cc3F)CC1)CCN(C)C2 (stereo not given)
95.6 nM		CC(C)Nc1nc2c(nc1N1CCC(Oc3ccc(F)cc3F)CC1)CN(S(C)(=O)=O)CC2
250 nM		CC(=O)N1CCc2nc(NC(C)C)c(N3CCC(S(=O)(=O)c4cccc(F)c4)CC3)nc2C1
71.5 nM		COCC(=O)N1CCc2nc(N3CCC(Oc4ccc(F)cc4F)CC3)c(NC(C)C)nc2C1

IC50 ([1]; cho-k1)	other results	Structure (SMILES)
27.9 nM		CC(C)Nc1nc2c(nc1N1CCN(Cc3ccc(F)cc3F)CC1)CCN(S(C)(=O)=O)C2
27 nM		CC(=O)N1CCc2nc(N3CCN(Cc4ccc(F)cc4F)CC3)c(NC(C)C)nc2C1
49.3 nM		CS(=O)(=O)N1CCc2nc(N3CCC(Oc4ccc(F)cc4F)CC3)c(NC3CCC3)nc2C1
97.8 nM		CC(=O)N1CCc2nc(N3CCN(Cc4ccc(F)cc4F)CC3)c(N[C@H]3CCOC3)nc2C1
247 nM		CC(=O)N1CCc2nc(NC(C)C)c(N3CCC(S(=O)(=O)c4ccccc4F)CC3)nc2C1
604 nM		CC(=O)O[C@H]1C[C@H](Nc2nc3c(nc2N2CCC(Oc4ccc(F)cc4F)CC2)CCN(C(C)=O)C3)C1
319 nM		CC[C@@H](C)Nc1nc2c(nc1N1CCC(Oc3ccc(F)cc3F)CC1)CCN(C(C)=O)C2
17.1 nM		CC(C)Nc1nc2c(nc1N1CCC(C(F)c3ccc(F)cc3F)CC1)CN(C)CC2 (stereo not given)
59.3 nM		CC(C)Nc1nc2c(nc1N1CCC(Oc3ccc(F)cc3F)CC1)CCN(S(C)(=O)=O)C2C (stereo not given)
11.4 nM		CC(C)Nc1nc2c(nc1N1CCC([C@H](F)c3ccc(F)cc3F)CC1)CCN(C=O)C2
114 nM		CC(=O)O[C@H]1C[C@@H](Nc2nc3c(nc2N2CCC(Oc4ccc(F)cc4F)CC2)CCN(C(C)=O)C3)C1
140 nM		COc1ccc(OC2CCN(c3nc4c(nc3NC(C)C)CN(C)CC4)CC2)c(F)c1
132 nM		COC(=O)N1CCc2nc(NC(C)C)c(N3CCC(Oc4ccc(F)cc4F)CC3)nc2C1
340 nM		CC(C)Nc1nc2c(nc1N1CCC(Oc3ccc(F)cc3F)CC1)CCN(C(=O)C1CC1)C2
93.5 nM		CC1c2nc(N3CCC(Oc4ccc(F)cc4F)CC3)c(NCC(F)F)nc2CCN1C(=O)N(C)C (stereo not given)
78 nM		CC(=O)N1CCc2nc(N3CCC(Oc4ccc(F)cc4F)CC3)c(N[C@H]3C[C@H](O)C3)nc2C1
	IC50 [1]: > 1000 nM	COC[C@@H](C)Nc1nc2c(nc1N1CCC(Oc3ccc(F)cc3F)CC1)CCN(C(C)=O)C2
74.1 nM		COc1ccc(OC2CCN(c3nc4c(nc3NC(C)C)CN(C(C)=O)CC4)CC2)c(F)c1
122 nM		CC(=O)N1CCc2nc(N3CCN(Cc4ccc(F)cc4F)CC3)c(N[C@H]3C[C@@H](O)C3)nc2C1
69.2 nM		CC(C)Nc1nc2c(nc1N1CCC(Oc3ccc(F)cc3F)CC1)CN(CCF)CC2
130 nM		COC(=O)N1CCc2nc(N3CCC(Oc4ccc(F)cc4F)CC3)c(NC(C)C)nc2C1
29 nM		CC(C)Nc1nc2c(nc1N1CCN(Cc3ccc(F)cc3F)CC1)CCN(C(=O)C(C)C)C2
129 nM		CC(C)Nc1nc2c(nc1N1CCC(Oc3ccc(F)cc3F)CC1)CCN(C(=O)C(F)F)C2
78.1 nM		CC(C)Nc1nc2c(nc1N1CCC(Oc3ccc(F)cc3F)CC1)CCN(C(=O)[C@@H]1CCCN1C)C2
186 nM		CC(=O)N1CCc2nc(N3CCN(Cc4ccc(F)cc4F)CC3)c(N[C@H]3C[C@H](F)C3)nc2C1
43.2 nM		CC(C)Nc1nc2c(nc1N1CCC(Oc3ccc(F)cc3F)CC1)CN(C=O)CC2
